Key:
HeLa = assay: Antitumor activity against human HeLa cells by MTT assay; format: functional, cell-based
[1] = Antitumor activity against human QGY7701 cells by MTT assay; format: functional, cell-based

O=c1[nH]cc(F)c(=O)[nH]1 [FLUOROURACIL] gave an IC50 (HeLa) of 64.2 µM and an IC50 [1] of 67.2 µM.

— ChEMBL document CHEMBL1155404, “Synthesis, chiral resolution, and determination of novel furan lignan derivatives with potent anti-tumor activity” (Bioorg Med Chem Lett, 2010)
